Reference: US20080069913A1, “Anti-Snoring Composition” (PERSEE MEDICA,, priority 2004, published 2008)

Tests used:
[1] = flow time (rate of flow) over 10 cm on a plane tilted at 45°; type: physicochemical; conditions: 0.5 ml, plate tilted 45°
Experimental: (§1) Three types of tests were performed: flow measurement on a biological membrane, the test of immersion in artificial saliva and the salting-out test. The rate of flow is the time it takes a given volume of liquid to travel 10 centimetres across a plane tilted at 45°. The saliva immersion test aims to highlight the contact time of the product with the biological membrane when it is subjected to the effect of saliva. Finally, the salting-out test aims to highlight the time it takes the product to salt out a tracer when it is subject to permanent “leaching” by the saliva. These three tests are described in full in the scientific literature and are reference tests for measuring the time a solution remains at its site of action in experimental conditions approximating the physiological conditions of the pharyngeal mucosa.
The composition (bioadhesive preparation) was examined under experimental conditions to verify its bioadhesive properties and compare them to a non-bioadhesive reference substance (distilled water) and a liposome-based commercial preparation (liposome preparation). The measurements carried out included flow time on a biological membrane and immersion in artificial saliva.
The rate of flow is the time it takes for a given volume of liquid to travel 10 cm over a plane tilted at 45°. This test was performed on 3 levels: • on a 20 cm^2 stainless-steel plate, non-biological membrane; • on a 20 cm^2 stainless-steel plate covered with a cellulose membrane, biological membrane; • on a 20 cm^2 stainless-steel plate covered in a cellulose membrane impregnated with a 5% mucin solution.
For this study, 0.5 ml was deposited 0.5 cm from the top edge of the plate, the deposit being made in horizontal position. The chronometer starting line is located 5 cm from the top edge of the plate when the liquid crosses it after tilting the plate to 45°. In the same way, the chronometer stopping line is located 5 cm from the bottom edge of the plate when the liquid crosses it.

[2] = artificial saliva immersion test; type: physicochemical; conditions: membrane covered in mucin, submerged vertically in 2 litres of artificial saliva
Experimental: as §1
The aim of the artificial saliva immersion test is to show the contact time of the product with the biological membrane when subjected to the effect of saliva. As before, the product is deposited on the surface of a biological membrane covered in mucin. After flowing over a distance of 10 cm, the plate/biological membrane/product assembly is submerged vertically in a container with 2 litres of artificial saliva. The time the product remains on the surface of the membrane is determined using a chronometer.

O [Distilled water]
<1″: flow time, Stainless-steel support ([1]; 20 cm^2 stainless-steel plate, non-biological) | flow time, Stainless-steel + membrane + mucin ([1]; cellulose membrane impregnated with 5% mucin solution) | flow time, Stainless-steel + membrane ([1]; stainless-steel plate covered with cellulose membrane) | time the product remains on the surface of the membrane [2]
